Data: PubChem BioAssay AID1996
Values after ≈ are worked out from the molar mass of the structure shown.

Details: buffer; pH 7.4; 200.0 µM

**Q.** With `CCOc1ccc(CN2CCSCC2)cc1` as the compound, how does the solubility kinetic read?
**A.** 18.5 µg/mL (≈ 77.9 µM)

**Q.** With `CCN(Cc1nc2ccccc2n1C)c1ccccc1` as the compound, how does the solubility kinetic read?
**A.** 30.7 µg/mL (≈ 116 µM)

**Q.** Which solubility kinetic does the source give for `Br.Cc1ccc(C2Cc3cc(O)c(O)cc3CN2)cc1` (stereo not given) here?
**A.** 44.3 µg/mL

**Q.** Which solubility kinetic does the source give for `Cc1ccc(C(=O)NNC(=O)c2ccncc2)cc1[N+](=O)[O-]` here?
**A.** > 45 µg/mL

**Q.** Which solubility kinetic does the source give for `Cc1cc(C(=O)NCCc2ccc(Cl)cc2)c(C)o1` here?
**A.** 31.1 µg/mL (≈ 112 µM)

**Q.** For `O=C(O)c1cc(=O)n(Cc2ccccc2)c(=O)[nH]1`, which solubility kinetic is on record?
**A.** > 36.9 µg/mL

**Q.** Which solubility kinetic does the source give for `CCC(=O)Nc1cccc(-c2nc3ccc(C)cc3o2)c1` here?
**A.** 1.6 µg/mL (≈ 5.71 µM)

**Q.** For `COc1ccc(C(=O)Nc2ccccc2C(=O)Nc2cccnc2)cc1`, which solubility kinetic is on record?
**A.** 8.8 µg/mL (≈ 25.3 µM)

**Q.** With `CCOc1ccc(S(=O)(=O)n2cnc3ccccc32)cc1` as the compound, how does the solubility kinetic read?
**A.** 42.4 µg/mL (≈ 140 µM)

**Q.** With `CC(C)(C)NC(=O)CN(C(=O)C1CSC(=O)C1)c1ccccc1F` (stereo not given) as the compound, how does the solubility kinetic read?
**A.** 33.3 µg/mL (≈ 94.5 µM)

**Q.** With `Cc1ccc(Nc2c(-c3ccc(C)o3)nc3ncccn23)cc1` as the compound, how does the solubility kinetic read?
**A.** 1.9 µg/mL (≈ 6.24 µM)

**Q.** Which solubility kinetic does the source give for `CCc1ccccc1N1C(=O)C2C3C=CC(CC3)C2C1=O` (stereo not given) here?
**A.** > 42.2 µg/mL

**Q.** With `CN(CCc1ccccc1)C1CCCN(S(=O)(=O)N(C)C)C1` (stereo not given) as the compound, how does the solubility kinetic read?
**A.** > 48.8 µg/mL

**Q.** Which solubility kinetic does the source give for `Cl.Nc1nc(N)c2[nH]c(-c3ccccc3)nc2n1` here?
**A.** > 39.4 µg/mL

**Q.** With `O=C(NCc1ccccn1)Nc1ccccc1` as the compound, how does the solubility kinetic read?
**A.** > 34.1 µg/mL

**Q.** With `CCCc1cc(=O)c2ccc(OC/C(C)=N/O)cc2o1` as the compound, how does the solubility kinetic read?
**A.** 38.3 µg/mL (≈ 139 µM)

**Q.** For `Cn1c(=O)n(CC(=O)[O-])c(=O)c2c1nc1n2CCS1`, which solubility kinetic is on record?
**A.** 40.8 µg/mL

**Q.** Which solubility kinetic does the source give for `CCCOc1ccccc1/C=C(\C#N)C(=O)Nc1cccc(C)n1` here?
**A.** 5.1 µg/mL (≈ 15.9 µM)

**Q.** With `O=C(Nc1nc(-c2ccncc2)cs1)c1ccc(F)cc1` as the compound, how does the solubility kinetic read?
**A.** < 0.2 µg/mL

**Q.** Which solubility kinetic does the source give for `O=C(COC(=O)/C=C/c1cccc(Br)c1)NCc1cccs1` here?
**A.** 5 µg/mL (≈ 13.1 µM)

**Q.** With `O=c1c2ccccc2nc(/C=C/c2ccccn2)n1-c1ccccc1` as the compound, how does the solubility kinetic read?
**A.** 0.6 µg/mL (≈ 1.84 µM)

**Q.** Which solubility kinetic does the source give for `COc1ccc(CNC(=O)Cc2cccs2)cc1` here?
**A.** 26.9 µg/mL (≈ 103 µM)

**Q.** Which solubility kinetic does the source give for `CCOc1cnc(C(=O)NNC(=O)c2ccccc2Br)o1` here?
**A.** > 53.1 µg/mL

**Q.** For `O=C(NC(=S)N1CCCCC1)c1csc([N+](=O)[O-])c1`, which solubility kinetic is on record?
**A.** > 44.9 µg/mL

**Q.** With `COC(=O)c1cc(S(=O)(=O)NC2CCCCC2)cn1C` as the compound, how does the solubility kinetic read?
**A.** 42 µg/mL (≈ 140 µM)

**Q.** For `Cc1nnc(SCC(=O)N(C)C2CCCCC2)n1C`, which solubility kinetic is on record?
**A.** > 42.4 µg/mL

**Q.** Which solubility kinetic does the source give for `CSc1ncc(Cl)c(C(=O)Nc2ccccc2C)n1` here?
**A.** 1.3 µg/mL (≈ 4.43 µM)

**Q.** With `CC(C)N(C(=O)Nc1ccc2nsnc2c1)C(C)C` as the compound, how does the solubility kinetic read?
**A.** > 41.8 µg/mL

**Q.** For `O=C(O)CSC1CC(=O)N(c2ccc(Br)cc2)C1=O` (stereo not given), which solubility kinetic is on record?
**A.** > 51.6 µg/mL

**Q.** Which solubility kinetic does the source give for `CCNC(=O)COC(=O)CCNC(=O)c1ccc(Cl)cc1` here?
**A.** > 46.9 µg/mL

**Q.** With `Cc1ccc2c(Cl)c(C(=O)NC3CC3)sc2c1` as the compound, how does the solubility kinetic read?
**A.** < 0.6 µg/mL

**Q.** For `Cc1cc(C(=O)Nc2cccc3ccccc23)co1`, which solubility kinetic is on record?
**A.** 33 µg/mL (≈ 131 µM)

**Q.** Which solubility kinetic does the source give for `Cc1ccc2[nH]cc(CCNS(=O)(=O)c3ccc(F)cc3)c2c1` here?
**A.** 23 µg/mL (≈ 69.2 µM)

**Q.** Which solubility kinetic does the source give for `CC1CCCC(C)N1C(=O)COC(=O)CCC(=O)c1cccs1` (stereo not given) here?
**A.** > 50.6 µg/mL

**Q.** Which solubility kinetic does the source give for `O=C(O)CCSc1nc2ccccc2n1-c1ccccc1` here?
**A.** > 44.8 µg/mL

**Q.** For `COc1ccccc1NCc1cc(=O)oc2c(C)c(O)ccc12`, which solubility kinetic is on record?
**A.** 4.4 µg/mL (≈ 14.1 µM)

**Q.** With `CC(=O)Nc1ccc2c(c1)C(=O)N(c1cccc3ccccc13)C2=O` as the compound, how does the solubility kinetic read?
**A.** 8.2 µg/mL (≈ 24.8 µM)

**Q.** For `Cc1noc2ncnc(N3CCCC3)c12`, which solubility kinetic is on record?
**A.** > 30.6 µg/mL

**Q.** Which solubility kinetic does the source give for `Oc1ccc(-c2ccccc2)cc1CN1CCCCCC1` here?
**A.** 17.4 µg/mL (≈ 61.8 µM)

**Q.** For `Cn1cccc1C(=O)OCC(=O)c1ccc(Br)s1`, which solubility kinetic is on record?
**A.** 7.9 µg/mL (≈ 24.1 µM)

**Q.** With `COc1cc2c(cc1OC)CN(CC(=O)NC(=O)NC1CCCCC1)CC2` as the compound, how does the solubility kinetic read?
**A.** > 56.3 µg/mL

**Q.** With `Cc1cc(OCC(=O)Nc2ccncc2)cc(C)c1Cl` as the compound, how does the solubility kinetic read?
**A.** 2.9 µg/mL (≈ 9.97 µM)

**Q.** For `COc1ccc(CCNC(=O)CCc2ccc(OC)cc2)cc1`, which solubility kinetic is on record?
**A.** 11.4 µg/mL (≈ 36.4 µM)

**Q.** With `COCCn1cc(C(=S)N2CCCCC2)c2ccccc21` as the compound, how does the solubility kinetic read?
**A.** > 45.4 µg/mL

**Q.** For `Cc1cccc(NC(=O)c2ccc(S(=O)(=O)N3CCOCC3)cc2)n1`, which solubility kinetic is on record?
**A.** 48.2 µg/mL (≈ 133 µM)

**Q.** Which solubility kinetic does the source give for `O=C(CN1CCN(c2ccc([N+](=O)[O-])cc2Cl)CC1)N1CCOCC1` here?
**A.** 54.9 µg/mL (≈ 149 µM)

**Q.** For `COc1ccccc1/C=C/C(=O)OCC(=O)Nc1ccc2c(c1)OCO2`, which solubility kinetic is on record?
**A.** 3.3 µg/mL (≈ 9.29 µM)

**Q.** For `N#C/C(=C\c1ccccc1)c1ccccn1`, which solubility kinetic is on record?
**A.** 8.6 µg/mL (≈ 41.7 µM)

**Q.** Which solubility kinetic does the source give for `CC1CCN(C2CC(=O)N(c3ccc(Br)cc3Br)C2=O)CC1` (stereo not given) here?
**A.** 40.4 µg/mL (≈ 93.9 µM)

**Q.** For `CC1C/C(=N\NC(=O)c2cccnc2)CC(C)(C)C1` (stereo not given), which solubility kinetic is on record?
**A.** > 38.9 µg/mL

**Q.** With `COc1cc(CN2CCCCCC2)cc(Br)c1O` as the compound, how does the solubility kinetic read?
**A.** 39.6 µg/mL (≈ 126 µM)

**Q.** Which solubility kinetic does the source give for `COC(=O)c1cc(S(=O)(=O)N2CCCC(C)C2)cn1C` (stereo not given) here?
**A.** 43.2 µg/mL (≈ 144 µM)

**Q.** For `Cc1ccc(-c2nc3ccccc3c(=O)n2-c2cccc(C)n2)cc1`, which solubility kinetic is on record?
**A.** > 49.1 µg/mL

**Q.** With `CC1(C)SC(=S)N(c2ccccc2)C1/[N+]([O-])=C/c1cccc([N+](=O)[O-])c1` (stereo not given) as the compound, how does the solubility kinetic read?
**A.** 6.2 µg/mL (≈ 16 µM)

**Q.** For `Nc1cc(OCC(F)(F)F)cc(OCC(F)(F)F)c1`, which solubility kinetic is on record?
**A.** > 43.4 µg/mL

**Q.** With `N/C(=N\OC(=O)C12CC3CC(CC(C3)C1)C2)c1ccncc1` as the compound, how does the solubility kinetic read?
**A.** 17 µg/mL (≈ 56.8 µM)

**Q.** Which solubility kinetic does the source give for `COc1ccc(NC(=O)COC(=O)CCSc2ccccc2)cc1` here?
**A.** 10.6 µg/mL (≈ 30.7 µM)

**Q.** For `COc1ccc(N(CC(=O)NCCSc2ccccc2)S(=O)(=O)c2ccccc2)c(OC)c1`, which solubility kinetic is on record?
**A.** 3.6 µg/mL (≈ 7.4 µM)

**Q.** For `O=C(CN1CCN(c2ccc(O)cc2)CC1)Nc1ccc(S(=O)(=O)N2CCCC2)cc1`, which solubility kinetic is on record?
**A.** 44.6 µg/mL (≈ 100 µM)

**Q.** With `COc1ccc(CNC(=O)c2c(C)cc(=O)oc2C)cc1` as the compound, how does the solubility kinetic read?
**A.** > 43.1 µg/mL
